Measured values taken from EP0479121A1, “Skin treatment compositions containing beta-phosphatidyl choline derivatives” (FIDIA S.p.A., priority 1990, dated 1992).

Legend:
[1] = test system: stratum corneum; test: In vivo hydration tests on human volunteers, Corneometer (Test 3); conditions: 50 mg cream on volar forearm (20 cm²), average of 10 subjects, lower numbers = higher hydration, before application 241±21; for Measured hydration values, 30': 30 min after application; for Measured hydration values, 150': 150 min after application; for Measured hydration values, 270': 270 min after application
Protocol: The hydration tests were conducted using a Corneometer laboratory instrument equipped with a capacitive probe able to measure the moisture present on the stratum corneum. To conduct the test, 50 mg of standard cream and cream containing the various synthetic β-lecithins prepared as Examples 1 and 2 are applied to the volar surface of the forearm (20 cm² ) with light circular massage.
The hydration measurements were taken before applying the product and 30 min, 150 min and 270 min after its application. The hydration values are expressed in arbitrary units deriving from electrical impedance measurements on the cutaneous surface. Although the values are relative they are in inverse linear relationship to the absolute water quantity present in the cutaneous layer of the skin (lower numbers correspond to higher hydration).

[2] = Emulsion stability under centrifuging at 6000 r.p.m. (Test 2); assay type: physicochemical; conditions: 250 mg in 10 g water added to 90 g standard emulsion, phase separation noted
Protocol: To evaluate the influence of β-phosphatidyl choline derivatives on emulsion stability, a standard emulsion was prepared having the following composition (Table 2):
The aqueous phase heated to 70°C is slowly added to the oil phase heated to 75°C. Rapid agitation is effected by a Silverson laboratory mixer equipped with an emulsifying head and is continued for about 30 minutes, slowly cooling the formed emulsion to ambient temperature.
250 mg of each of the considered β-lecithins dispersed or dissolved in 10 g of water are added under slow agitation to 90 g of the standard emulsion obtained.
The resultant emulsions are tested for stability by subjecting them to centrifuging at 6000 r.p.m. for 10, 30 and 60 minutes respectively, and by storing them under temperature control at 45°C for 72 hours. In both cases the stability is evaluated by noting any phase separation.

Row | SMILES | Measured hydration values, 30' [1] [arbitrary units] | Measured hydration values, 150' [1] [arbitrary units] | Measured hydration values, 270' [1] [arbitrary units] | Stability under centrifuging at 6000 r.p.m., 10 min ([2]; 10 min) | Stability under centrifuging at 6000 r.p.m., 30 min ([2]; 30 min) | Stability under centrifuging at 6000 r.p.m., 60 min ([2]; 60 min)
1 | CCCCCCCCCCCCCC(=O)OCC(COC(=O)CCCCCCCCCCCCC)OP(=O)([O-])OCC[N+](C)(C)C [PCS2, 1,3-dimyristoylglycero-2-phosphoryl choline] | 147±11 | 175±10 | 195±9 |  |  | 
2 | CCCCCCCCCCCCCCCC(=O)OCC(COC(=O)CCCCCCCCCCCCCCC)OP(=O)([O-])OCC[N+](C)(C)C [PCS1, 1,3-dipalmitoylglycero-2-phosphoryl choline] | 165±10 | 195±15 | 213±15 | Stable | Stable | Stable
3 | CC(C)(C)C(=O)OCC(COC(=O)C(C)(C)C)OP(=O)([O-])OCC[N+](C)(C)C [PCS3, 1,3-dipivaloylglycero-2-phosphoryl choline] | 157±7 | 193±13 | 206±9 |  |  | 
4 | CCCCCCCCCCCCCCCCCC(=O)OCC(COC(=O)CCCCCCCCCCCCCCCCC)OP(=O)([O-])OCC[N+](C)(C)C [PCS4, 1,3-distearoylglycero-2-phosphoryl choline] | 132±12 | 161±11 | 180±12 |  |  | 
5 | COc1cc(C(=O)OCC(COC(=O)c2cc(OC)c(OC)c(OC)c2)OP(=O)([O-])OCC[N+](C)(C)C)cc(OC)c1OC [PCS5, 1,3-di(3,4,5-trimethoxybenzoyl)glycero-2-phosphoryl choline] | 124±14 | 144±16 | 177±15 |  |  | 
